These results are taken from patent publication US8063012B2, “Neuroprotective peptide inhibitors of AP-1 signaling and uses therefor” (Phylogica Limited, priority 2006, dated 2011).

Non-standard residues stand in square brackets, D forms with d. Residues, ends and D or L forms follow the SMILES beside them. A value given as a limit tells only on which side of the number the result lay.

The subject of series [1] is primary cortical neuronal cultures. Briefly: Glutamate excitotoxicity in primary cortical neuronal cultures, neuronal viability by MTS assay. The conditions noted are these: Sprague-Dawley, rat, 18 h. The format is cell-based, rat. The protocol: Neurons were resuspended in Neurobasal (NB; Invitrogen) containing 2% B27 supplement (B27; Invitrogen). Before seeding, culture vessels comprising either a 96-well plastic plate or 24-well plastic plate with 13 mm glass coverslips (ProSciTech, Australia), were coated with poly-D-lysine (50 μg/mL; 70-150K; Sigma) and incubated overnight at room temperature. […] Neurons were plated to obtain approximately 10,000 viable neurons for each well of a 96-well plate, or 200,000 viable neurons per well of a 24-well plate, on day in vitro (DIV) […]. […] On DIV 4, one third of the culture medium was removed and replaced with fresh NB/2% B27 containing the mitotic inhibitor, cytosine arabinofuranoside (Sigma) at 1 μM concentration. On DIV 8, one half of the culture medium was replaced with NB/2% B27.
To induce glutamate excitotoxicity in the cortical neuronal cultures (96-well plate format), 50 μl of conditioned media containing 200 μM glutamate was added to culture wells containing 50 μl conditioned media (100 μM final glutamate concentration). Cultures were incubated at 37° C. in a CO2 incubator for 5 minutes, after which time the media was replaced with 100 μl of 50% NB/2% N2 and 50% balance salt solution (NB/N2:BSS).
Untreated and glutamate-treated control samples received media additions with and without glutamate respectively.
Eighteen hours after glutamate exposure, neuronal cultures were examined by light microscopy for qualitative assessment of neuronal damage. Neuronal viability was quantitatively measured by 3-(4,5,dimethyliazol-2-yl)-5-(3-carboxymethoxy-phenyl)-2-(4-sulfophenyl)-2H-tetrazolium salt (MTS) assay (Promega, Australia). The MTS assay measures the mitochondrial conversion of the tetrazolium salt to a water-soluble brown formazan salt, which is detected spectrophotometrically at 495 nm. MTS absorbance data was converted to reflect proportional cell viability relative to both the untreated and glutamate treated controls. […] All assays were performed with quadruplicate sister neuronal cultures repeated a minimum of four times independently.

The next series can be described thus: in vitro. The following applies: human, plasma. The format is in vitro ADME. The protocol:
A stock solution of 200 μg/ml of peptide in PBS was diluted into 1.5 ml of human plasma or PBS to achieve a final concentration of 10 μg/ml. Of this solution, 50 μl was then dispensed into 200 μl Max Recovery tubes (Axygen Scientific) in triplicate for each time point needed in the study. The tubes were incubated at 37° C. and at the appropriate time point, they were removed from the incubator and 150 μl of extraction solution (75% acetonitrile/25% water+2% formic acid) was added. The tubes were vortexed for 15 sec and then centrifuged at 11,000 RPM for 5 mins at 4° C. Then, 100 μl of the supernatant was transferred into HPLC vials for analysis.
A fixed mobile phase was used so that all of the different charged species of peptide would elute at the same time, allowing a mass measurement of non-degraded material. Injection volume: 10 μl; Column: Phenomenex Aqua C18 5 μM 150 mm×4.6 mm; Flow: 0.8 ml/min; 85% Mobile phase A: 4% formic acid in nanopure water; 15% Mobile phase B: acetonitrile; RT: 1.3 minutes; Stop time: 3.0 minutes. Mass Spectrometer: MS-03 LC/MSD Trap XCT Ultra.

Another series in a line: in vivo. The conditions noted are these: male, Sprague-Dawley, rat, iv, 3 mg/kg. As for the experimental part: Male Sprague-Dawley rats (276-310 g) were dosed with peptide by i.v injection via the jugular vein. The calculated dose for each animal was 3 mg/kg of body weight and each isoflurane anaesthetised animal received dosing volumes of 0.1 ml/100 g of body weight of a 3 mg/ml solution. The remaining dosing solutions were subjected to a similar protocol as the solutions that were administered to the animals and were collected pre-labeled Maxymum Recovery (Axygen Scientific) low binding tubes, ready for quantification. Blood samples (0.2 ml) were collected just prior to dosing (pre-dose) and at various time points post-dosing according to the experimental schedule. Blood samples were collected from the jugular vein from the anaesthetized and transferred into 0.5 ml pre-labeled EDTA micro-centrifuge tubes and placed on ice. The tubes were then centrifuged for 5 mins at 3,000 RPM in a bench top microcentrifuge (4° C.). The plasma was transferred to pre-labeled 1.7 ml tubes, stored in a −80° C. freezer prior to analysis by LC-MS.
Analysis: Sample Preparation: 50 μl of plasma was added to 150 μl of precipitating solvent (75% acetonitrile/25% water+2% formic acid) and vortexed for 15 sec. The solution was centrifuged at 11,000 rpm at 4° C. for 5 mins. 100 μl of the supernatant was transferred to a HPLC vial for quantification. […]

The conditions of series [2]: rabbit blood; cited from earlier work.

Consider `CC[C@@H](C)[C@@H](NC(=O)[C@@H](CCCCN)NC(=O)[C@H]1CCCN1)C(=O)N[C@H](CO)C(=O)N[C@H](CCC(N)=O)C(=O)N[C@H](Cc1ccc(O)cc1)C(=O)NCC(=O)N[C@H](CCC(N)=O)C(=O)N[C@H](CCCNC(=N)N)C(=O)N[C@H](CCCNC(=N)N)C(=O)N[C@H](CCCNC(=N)N)C(=O)NCC(=O)N[C@H](CCC(N)=O)C(=O)N[C@H](CC(C)C)C(=O)NCC(=O)NCC(=O)N[C@H](CCCNC(=N)N)C(=O)N[C@H](CCCNC(=N)N)C(=O)N[C@H](CCCNC(=N)N)C(=O)N[C@H](CCC(N)=O)C(=O)N[C@H](CCCNC(=N)N)C(=O)N[C@H](CCCNC(=N)N)C(=O)N[C@H](CCCCN)C(=O)N[C@H](CCCCN)C(=O)N[C@H](CCCNC(=N)N)C(=O)NCC(=O)O` [PYC36D-TAT] (H-[dP][dK][dI][dS][dQ][dY]G[dQ][dR][dR][dR]G[dQ][dL]GG[dR][dR][dR][dQ][dR][dR][dK][dK][dR]G-OH; N-terminus and C-terminus assumed), for which the “neuronal viability following glutamate excitotoxicity” value in series [1] (1 μM) is 44%; in series [1] (5 μM) it was 82%. The molecule further displayed a half-life at 10 μg/ml in the series “in vitro” above 12 h. The molecule further came in with a half-life in the series “in vivo” of 1.67 h.
As for tissue plasminogen activator [tPA], in series [2], the “in vivo half life” value was “a few minutes”.
As for `CC[C@@H](C)[C@@H](NC(=O)[C@@H](CCC(=O)O)NC(=O)[C@@H](CO)NC(=O)[C@@H](CO)NC(=O)[C@@H](CO)NC(=O)[C@@H](CCCCN)NC(=O)[C@@H](CCCNC(=N)N)NC(=O)[C@@H](CCC(=O)O)NC(=O)[C@H](N)CCCNC(=N)N)C(=O)NCC(=O)NCC(=O)N[C@H](CO)C(=O)N[C@H](CCCNC(=N)N)C(=O)N[C@@H](C(=O)N[C@H](CO)C(=O)N[C@H](CCC(N)=O)C(=O)N[C@H](Cc1ccc(O)cc1)C(=O)N[C@H](C)C(=O)NCC(=O)N[C@H](CCCNC(=N)N)C(=O)N[C@H](CCCNC(=N)N)C(=O)N[C@H](CCCNC(=N)N)C(=O)N[C@H](CCC(N)=O)C(=O)N[C@H](CCCNC(=N)N)C(=O)N[C@H](CCCNC(=N)N)C(=O)N[C@H](CCCCN)C(=O)N[C@H](CCCCN)C(=O)N[C@H](CCCNC(=N)N)C(=O)NCC(=O)O)[C@H](C)CC` [PYC35D-TAT] (H-[dR][dE][dR][dK][dS][dS][dS][dE][dI]GG[dS][dR][dI][dS][dQ][dY][dA]G[dR][dR][dR][dQ][dR][dR][dK][dK][dR]G-OH; N-terminus and C-terminus assumed), the “neuronal viability following glutamate excitotoxicity” value in series [1] (5 μM) was 59%. The half-life at 10 μg/ml in “in vitro” was above 12 h. The molecule also displayed a half-life in the series “in vivo” of 0.583 h.
